Article PMC8159961, “Exploring protein hotspots by optimized fragment pharmacophores” (Nature Communications, 2021)

Experiments:
human 5-HT1A receptor = biological target: T1, human 5-HT1A receptor (Homo sapiens, UniProt P08908); experiment: GPCR radioligand binding assay, [3H]-8-OH-DPAT displacement, HEK293 membranes; conditions: for 5-HT1A % Inhibition by plate position: 10 µM; for %inh 5-HT1A average: average of exp_1 and exp_2; for %inh 5-HT1A exp_1: replicate exp_1; for %inh 5-HT1A exp_2: replicate exp_2; for %inh 5-HT1A corrected*: average, values below 0 and above 100% were set as 0 and 100
T1 construct: expressed in transfected cells
T1 sequence (P08908 1-422): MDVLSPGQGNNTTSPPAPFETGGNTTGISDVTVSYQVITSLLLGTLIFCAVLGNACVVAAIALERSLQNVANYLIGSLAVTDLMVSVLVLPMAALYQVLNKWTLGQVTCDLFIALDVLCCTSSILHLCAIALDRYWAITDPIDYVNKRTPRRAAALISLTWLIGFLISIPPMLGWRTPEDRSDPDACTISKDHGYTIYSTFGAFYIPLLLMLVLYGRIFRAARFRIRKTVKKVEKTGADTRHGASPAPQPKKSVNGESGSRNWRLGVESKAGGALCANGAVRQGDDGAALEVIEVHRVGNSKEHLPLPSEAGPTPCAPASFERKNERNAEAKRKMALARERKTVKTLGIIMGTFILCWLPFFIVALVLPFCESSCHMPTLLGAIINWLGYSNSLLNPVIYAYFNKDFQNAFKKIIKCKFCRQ

human 5-HT6 receptor = biological target: T2, human 5-HT6 receptor (Homo sapiens, UniProt P50406); experiment: GPCR radioligand binding assay, [3H]-LSD displacement, HEK293 membranes; conditions: for 5-HT6 % Inhibition by plate position: 10 µM; for %inh 5-HT6 average: average of exp_1 and exp_2; for %inh 5-HT6 corrected*: average, values below 0 and above 100% were set as 0 and 100; for %inh 5-HT6 exp_1: replicate exp_1; for %inh 5-HT6 exp_2: replicate exp_2
T2 construct: expressed in transfected cells

human 5-HT7b receptor = biological target: T3, human 5-HT7b receptor (Homo sapiens, UniProt P34969); experiment: GPCR radioligand binding assay, [3H]-5-CT displacement, HEK293 membranes; conditions: for 5-HT7 % Inhibition by plate position: 10 µM; for %inh 5-HT7 average: average of exp_1 and exp_2; for %inh 5-HT7 exp_1: replicate exp_1; for %inh 5-HT7 exp_2: replicate exp_2
T3 construct: expressed in transfected cells
T3 sequence (P34969 1-432): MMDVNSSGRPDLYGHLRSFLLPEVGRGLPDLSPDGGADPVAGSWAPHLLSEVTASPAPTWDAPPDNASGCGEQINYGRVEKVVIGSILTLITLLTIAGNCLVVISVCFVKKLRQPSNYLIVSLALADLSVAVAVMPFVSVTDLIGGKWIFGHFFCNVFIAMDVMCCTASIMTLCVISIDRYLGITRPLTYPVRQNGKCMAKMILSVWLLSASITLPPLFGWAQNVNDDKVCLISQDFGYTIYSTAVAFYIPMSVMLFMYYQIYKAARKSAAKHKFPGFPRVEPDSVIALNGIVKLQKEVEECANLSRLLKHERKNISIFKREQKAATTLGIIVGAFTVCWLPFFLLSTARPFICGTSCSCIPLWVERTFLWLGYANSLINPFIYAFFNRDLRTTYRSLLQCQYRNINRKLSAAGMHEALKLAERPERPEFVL

T2 sequence (P50406 whole entry): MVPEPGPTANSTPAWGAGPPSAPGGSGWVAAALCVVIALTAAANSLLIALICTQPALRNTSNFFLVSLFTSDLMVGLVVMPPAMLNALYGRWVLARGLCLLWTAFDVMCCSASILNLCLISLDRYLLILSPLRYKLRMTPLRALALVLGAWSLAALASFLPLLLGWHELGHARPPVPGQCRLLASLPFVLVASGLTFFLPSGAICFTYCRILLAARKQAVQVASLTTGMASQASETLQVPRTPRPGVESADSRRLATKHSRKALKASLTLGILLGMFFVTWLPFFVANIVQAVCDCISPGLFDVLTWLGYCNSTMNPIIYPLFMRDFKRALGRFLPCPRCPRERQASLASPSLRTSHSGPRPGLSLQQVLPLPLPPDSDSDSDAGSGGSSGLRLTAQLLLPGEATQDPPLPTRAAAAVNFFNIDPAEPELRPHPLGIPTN

Row | SMILES | 5-HT1A % Inhibition by plate position (human 5-HT1A receptor) [%] | %inh 5-HT1A average (human 5-HT1A receptor) [%] | %inh 5-HT1A exp_1 (human 5-HT1A receptor) [%] | %inh 5-HT1A exp_2 (human 5-HT1A receptor) [%] | 5-HT6 % Inhibition by plate position (human 5-HT6 receptor) [%] | %inh 5-HT6 average (human 5-HT6 receptor) [%] | %inh 5-HT6 corrected* (human 5-HT6 receptor) [%] | %inh 5-HT6 exp_1 (human 5-HT6 receptor) [%] | %inh 5-HT6 exp_2 (human 5-HT6 receptor) [%] | 5-HT7 % Inhibition by plate position (human 5-HT7b receptor) [%] | %inh 5-HT7 average (human 5-HT7b receptor) [%] | %inh 5-HT7 exp_1 (human 5-HT7b receptor) [%] | %inh 5-HT7 exp_2 (human 5-HT7b receptor) [%] | %inh 5-HT1A corrected* (human 5-HT1A receptor) [%]
1 | Cc1nc(-c2ccccc2)cs1 [A7] | 0 | -4.34 | -13 | 4 | 50 | 50 | 50 | 50 | 50 | 0 | -0.168 | -4 | 3.71 | 
2 | Cc1cc(-c2ccccc2)n[nH]1 [A8] |  | 9 | 9 | 9 | 48 | 48 | 48 | 44 | 52 | 34 |  | 37 | 32 | 9
3 | Brc1ccc(-c2ccon2)cc1 [A9] |  | 3.49 | 4 | 3 | 34 | 34 | 34 | 40 | 29 | 5.57 |  | 1.16 | 10 | 3.49
4 | COc1ccccc1N1CCNCC1 [A10] | 100 | 102 | 101 | 103 | 69 | 69 | 69 | 80 | 58 | 72 |  | 67 | 76 | 
5 | COc1ccccc1C1CCNCC1 [A11] |  | 99 | 100 | 98 | 71 | 71 | 71 | 82 | 59 | 73 |  | 64 | 81 | 99
6 | CS(=O)(=O)c1ccc(N2CCNCC2)cc1 [B1] |  | 4.22 | 8.43 | 0 | 28 | 28 | 28 | 28 | 28 | 35 |  | 29 | 40 | 4.22
7 | O=C1CNCCN1c1ccccc1 [B2] |  | 4.62 | 9 | 0 | 47 | 47 | 47 | 50 | 44 | 0 | -2.46 | 14 | -19 | 4.62
8 | O=C1CCCc2occc21 [B3] | 0 | -4.51 | -9 | 0 | 34 | 34 | 34 | 37 | 30 | 0 | -2.76 | 8 | -14 | 
9 | NC1CCc2ccccc21 (stereo not shown) [B4] |  | 17 | 19 | 16 | 16 | 16 | 16 | 16 | 17 | 28 |  | 28 | 28 | 17
10 | N[C@H]1c2ccccc2C[C@H]1CO [B5] | 0 | -0.612 | -19 | 18 | 25 | 25 | 25 | 25 | 25 | 6 |  | 14 | -1 | 
11 | O=c1[nH]ncc2c1oc1ccccc12 [B6] | 0 | -6.46 | -14 | 0.625 | 26 | 26 | 26 | 18 | 34 | 0 | -4 | 3.34 | -11 | 
12 | O=C1NC(=O)C2(CCc3ccccc32)N1 (stereo not shown) [B7] | 0 | -12 | -22 | -1.44 | 32 | 32 | 32 | 32 | 31 | 3.8 |  | 10 | -2.31 | 
13 | CS(=O)(=O)c1ccc(OC(F)(F)F)cc1 [B8] | 0 | -30 | -20 | -40 | 4 | 4 | 4 | 0 | 8 | 6 |  | 3.74 | 8 | 
14 | Cc1cnc(C(F)(F)F)cn1 [B9] |  | 1.1 | -7 | 9 | 32 | 32 | 32 | 32 | 33 | 11 |  | 14 | 7 | 1.1
